Assay results as given in patent US20160143929A1, “ADMINISTRATION OF GL[…] THE TREATMENT OF CANCER” (Threshold Pharmaceuticals, Inc., priority 2008, published 2016).

Columns and labels:
[1] = Phase I study: pharmacokinetics of Glufosfamide by 6 h intravenous infusion; conditions: over the dose range studied, 3200-6000 mg/m^2
From the text: Patients were ineligible if they had symptomatic brain metastasis; other nonmalignant systemic disease; an active, uncontrolled infection; preexisting nephrotoxicity of grade 3 or 4 (NCI Common Toxicity Criteria—NCI-CTC) resulting from previous therapy; or infection with HIV, HBV, or HCV. They were also ineligible if they were pregnant or nursing, or if they required steroid therapy.
This open-label, dose-escalation Phase I study was based on intravenous infusion of the drug in three cohorts of Japanese subjects with malignant solid tumors. Glufosfamide was administered intravenously over 6 h in a total volume of 1000 mL of normal saline at doses of 3200, 4500, and 6000 mg/m^2. One-quarter of the dose was administered during the first 30 min at a rate of 500 mL/h, with the remainder of the dose being administered over the subsequent 330 min at a rate of 136 mL/h. Glufosfamide was administered on day 1 once every 3 weeks. Antiemetic premedication was not mandatory in the protocol. Granulocyte colony-stimulating factor (G-CSF) was administered for febrile neutropenia, sepsis with neutropenia, or recurrent neutropenia of grade 4.
Pharmacokinetic sampling was performed for the first and second cycles.

[2] = Phase I dose-escalation study: safety, DLT, MTD and RD; type: in vivo, human
Protocol: (§1) A medical history was obtained from each patient, and physical examinations and routine laboratory evaluations were performed before treatment initiation and weekly thereafter, Chest and other relevant x-rays were obtained during screening and after alternate cycles of treatment. Adverse events were monitored and recorded throughout the study and were graded according to NCI-CTC, version 3.0. The tumor response was assessed for measurable target lesions according to Response Evaluation Criteria in Solid Tumors (RECIST).
(§2) Antiemetic premedication was not mandatory in the protocol.
The starting dose of Glufosfamide was 3200, which was increased to 4500 and then to 6000 in subsequent cohorts of at least three patients. The following adverse events during cycle 1 were defined as DLTs (dose-limiting toxicities): neutropenia of grade 4 (ANC of <500/uL) for >7 days; febrile neutropenia (fever of >38 degrees C. with an ANC of <1000/uL); thrombocytopenia (platelet count of <25,000/uL); nausea or vomiting of grade > (or equal to) 3 despite maximal antiemetic therapy; and any other nonhematologic toxicity of grade > (or equal to) 3 considered drug-related. If any patient experienced a DLT during the first cycle, three additional patients were treated at the same dose. Patients who experienced a DLT could continue Glufosfamide therapy at the preceding dose level. Treatment in subsequent courses was reinitiated only after hematologic recovery (ANC of > (or equal to) 1500/uL, platelet count of > (or equal to) 100,000/uL) and resolution of all other toxicities to grade < (or equal to) 1 or baseline intensity. The MTD (maximum tolerated dose) was defined as the dose at which two or more patients experienced a DLT in the first cycle. The RD (recommended dose) was defined as the dose level immediately below the MTD. In accordance with the methods of the invention, both the RD and MTD (and intermediate doses) can be administered to patients, with the RD preferred for Japanese and other patients of Asian origin and the MID preferred for other patients.

solid tumors = assay: Phase I study: tumor response by RECIST; type: in vivo, human
Protocol: as §1, §2

pancreatic cancer = pancreatic cancer patients relapsed after or not responding to gemcitabine; cited from earlier work
[3] = Caucasian patients, intravenous infusion; cited from earlier work

O=P(NCCCl)(NCCCl)O[C@@H]1O[C@H](CO)[C@@H](O)[C@H](O)[C@H]1O [Glufosfamide, beta-D-glucosyl-isophosphoramide mustard]
dose linearity of pharmacokinetics [1]: linear pharmacokinetics | patients with neutropenia of grade 4 ([2]; 4500 mg/m^2, cycle 2, without infection, short-lived, 13 patients): only one patient | patients with grade 4 anemia requiring red blood cell transfusion ([2]; 4500 mg/m^2, cycle 3): one patient | patients with DLTs ([2]; 6000 mg/m^2, cycle 1, grade 3 metabolic acidosis, hypophosphatemia, hypokalemia): two of three treated patients experienced DLTs | MTD (maximum tolerated dose) ([2]; Japanese patients, 6 h iv infusion day 1 every 3 weeks, dose at which two or more patients had a DLT in cycle 1): 6000 mg/m^2 | RD (recommended dose) ([2]; Japanese patients, 6 h iv infusion every 3 weeks, dose level immediately below MTD): 4500 mg/m^2 | predominant nonhematologic toxicities ([2]; all dose levels, generally transient and reversible): fatigue, nausea, a high urinary concentration of beta 2 microglobulin, hypophosphatemia, hypokalemia, and metabolic acidosis | DLTs ([2]; two lowest doses (3200 and 4500 mg/m^2), cycle 1): No DLTs occurred | partial response (solid tumors; among thirteen evaluable patients, advanced gall bladder cancer, 4500 mg/m^2, after two cycles): one partial response | subjects showing stabilization of disease (solid tumors; among thirteen evaluable patients, colorectal (4), gastric, thymic cancer, thymoma, non-small cell lung cancer): eight subjects | patients with evidence of antitumor activity (solid tumors; among thirteen patients evaluable for response): nine patients | duration of partial response (solid tumors; person, advanced gall bladder cancer, 4500 mg/m^2, two cycles): greater than five months | Phase III trial outcome (pancreatic cancer): did not meet its endpoints | anticancer activity in Phase III trial (pancreatic cancer): did exhibit anticancer activity in some patients | dose that is well tolerated [3]: 6000 mg/m^2

O=P(O)(NCCCl)NCCCl [IPM, isophosphoramide mustard]
dose linearity of pharmacokinetics [1]: linear pharmacokinetics
